US20260365641A1, “Aromatic Acetylene Derivative, Preparation Method Therefor, And Use Thereof” (Zhejiang Hisun Pharmaceutical Co., Ltd., priority 2022, published 2026)
In brackets after ≈: the same amount, converted by molar mass.

Tests used:
[1] = target: T1, recombinant Pseudomonas aeruginosa LpxC (Pseudomonas aeruginosa, UniProt P47205); test: Inhibition of enzymatic activity of recombinant Pseudomonas aeruginosa LpxC in vitro; assay type: biochemical; settings: 5 nM LpxC; substrate UDP-3-O—(R-3-hydroxydecanoyl)-GlcNAc; 25 °C, 120 minutes; fluorescamine readout
T1 construct: purchased Signalway Antibody AP74647-2
T1 sequence (P47205 1-303): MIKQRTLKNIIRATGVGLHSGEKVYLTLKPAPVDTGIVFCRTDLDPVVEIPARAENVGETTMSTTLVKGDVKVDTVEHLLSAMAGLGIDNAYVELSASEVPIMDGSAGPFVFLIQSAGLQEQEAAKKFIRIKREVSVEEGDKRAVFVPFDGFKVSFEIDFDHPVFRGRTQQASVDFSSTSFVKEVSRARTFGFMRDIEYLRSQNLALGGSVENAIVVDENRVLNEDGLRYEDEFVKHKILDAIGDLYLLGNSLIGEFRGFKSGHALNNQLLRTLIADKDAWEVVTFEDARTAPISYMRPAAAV
Protocol: The following method was used to determine degrees of inhibition of the compounds of the present invention on the enzymatic activity of recombinant Pseudomonas aeruginosa LpxC in vitro.
The test process was briefly described as follows: the tested compound was first dissolved in DMSO to prepare a 10 mM storage solution. The reaction was carried out in a 96-well microplate. Firstly, 20 μL of recombinant Pseudomonas aeruginosa LpxC (purchased from Signalway Antibody, article number AP74647-2) was added into the wells, and the final concentrations were 5 nM respectively. 5 μL of the compound to be tested was added, diluted in 4-fold, with 8 concentration points, and the concentration range was 0.61-10000 nM. 5 μL of LpxC substrate UDP-3-O—(R-3-hydroxydecanoyl)-GlcNAc (purchased from Biosynth Carbosynth, article number mu75071) was added, wherein a final concentration of the substrate was […], and the substrate was incubated at 25 °C for 120 minutes. Subsequently, 20 μL of 2.0 mg/mL fluorescamine (purchased from sigma aldrich, article number F9015, wherein a solvent was dimethylformamide/acetonitrile (1:1)) was added to the reaction system, mixed evenly and reacted for 10 minutes. Finally, 50 μL of 200 mM sodium phosphate buffer solution (pH 8.0) was added to stop the reaction, and a microplate reader (BMG) was used for reading. An excitation wavelength and an emission wavelength were 390 nm and 495 nm respectively. Compared with the fluorescence intensity ratio of a control group (0.1% DMSO), the percentage inhibition rates of the compounds at each concentration were calculated, and the IC50 values of the compounds were obtained by performing nonlinear regression analysis with logarithmic value of the compound concentration-inhibition rate by GraphPad Prism 5 software, which can be seen in Table 1.

E. coli ATCC 25922 = test: Antibacterial activity, minimum inhibitory concentration (MIC) in vitro, broth dilution; assay type: cell-based; settings: Escherichia coli, ATCC25922, 5×10^5 cfu/mL, 35 °C, 18-24 hours
Protocol: (§1) The minimum inhibitory concentration (MIC) in vitro was determined according to CLSI's guidelines, and a minimal broth dilution method was used.
(§2) The test process was briefly described as follows: the tested compound was dissolved in DMSO to prepare a storage solution of […], and then prepared into 11 two-fold-diluted 100× high-concentration working liquids (a final concentration of the system was 64 μg/mL to 0.06 μg/mL) by DMSO. Stains (K. pneumoniae ATCC13883, K. pneumoniae ATCC51504 and E. coli ATCC 25922) frozen at −80 °C with glycerin were inoculated to a solid agar culture medium, placed into an incubator for culturing for 18-24 hours at 35 °C to finish the preparation work of the strains. A proper amount of solid plate culture was collected, re-suspended in normal saline, and uniformly mixed. The turbidity of the bacterial suspension was adjusted to a proper turbidity by a turbidity meter, containing about 1×10^8 cfu/mL of bacteria. Then, the turbidity-regulated bacterial suspension was diluted with a test culture medium (type: CAMHIIB, purchased from BD company) to a bacterial concentration of 5×10^5 cfu/mL, thus finishing the preparation of an inoculation solution. 198 μL of the inoculation solution was inoculated into a 96-well plate, and added with 2 μL 100× high concentration working liquid of the compound, then the 96-well plate was placed at 35 °C for culturing for 18-24 hours.

K. pneumoniae ATCC13883 = test: as above; assay type: cell-based; settings: Klebsiella pneumoniae, 5×10^5 cfu/mL, 35 °C, 18-24 hours
Protocol: as §1, §2

K. pneumoniae ATCC51504 = test: as above; assay type: cell-based; settings: Klebsiella pneumoniae, 5×10^5 cfu/mL, 35 °C, 18-24 hours
Protocol: as §1, §2

Compound | IC50 [1] [nM] | MIC (E. coli ATCC 25922) [µg/mL] | MIC (K. pneumoniae ATCC13883) [µg/mL] | MIC (K. pneumoniae ATCC51504) [µg/mL]
C[C@H](O)c1nccn1Cc1cc(-c2ccc(C#CC3CC4(C3)CN(C=O)C4)cc2)on1 [Example 22, (S)-6-((4-(3-((2-(1-hydroxyethyl)-1H-imidazol-1-yl)methyl)isoxazol-5-yl)phenyl)ethynyl)-2-azaspiro[3.3]heptane-2-carbaldehyde] | 6.54 | 1 (≈ 2.4 µM) | 4 (≈ 9.6 µM) | 
C[C@H](O)c1nccn1Cc1cc(-c2ccc(C#CC3CC4(CCN(CC(N)=O)CC4)C3)cc2)on1 [Example 13, (S)-2-(2-((4-(3-((2-(1-hydroxyethyl)-1H-imidazol-1-yl)methyl)isoxazol-5-yl)phenyl)ethynyl)-7-azaspiro[3.5]nonan-7-yl)acetamide] | 5 | 1 (≈ 2.11 µM) | 1 (≈ 2.11 µM) | 
C[C@H](O)c1nccn1Cc1cc(-c2ccc(C#CC3CC4(CCN(C=O)CC4)C3)cc2)on1 [Example 17, (S)-2-((4-(3-((2-(1-hydroxyethyl)-1H-imidazol-1-yl)methyl)isoxazol-5-yl)phenyl)ethynyl)-7-azaspiro[3.5]nonane-7-carbaldehyde] | 8.32 | 1 (≈ 2.25 µM) | 2 (≈ 4.5 µM) | 
C[C@H](O)c1nccn1Cc1cc(-c2ccc(C#CC3CC4(CCN(C(=O)CO)CC4)C3)cc2)on1 [Example 12, (S)-2-hydroxy-1-(2-((4-(3-((2-(1-hydroxyethyl)-1H-imidazol-1-yl)methyl)isoxazol-5-yl)phenyl)ethynyl)-7-azaspiro[3.5]nonan-7-yl)ethan-1-one] | 4.06 | 2 (≈ 4.21 µM) | 4 (≈ 8.43 µM) | 
C[C@H](O)c1nccn1Cc1cc(-c2ccc(C#CC3CC4(C3)CN(CC(N)=O)C4)cc2)on1 [Example 20, (S)-2-(6-((4-(3-((2-(1-hydroxyethyl)-1H-imidazol-1-yl)methyl)isoxazol-5-yl)phenyl)ethynyl)-2-azaspiro[3.3]heptan-2-yl)acetamide] | 6.77 | 2 (≈ 4.49 µM) | 4 (≈ 8.98 µM) | 
C[C@H](O)c1nccn1Cc1cc(-c2ccc(C#CC3=CCN(C(=O)c4ccncc4)CC3)cc2)on1 [Example 33, (S)-(4-((4-(3-((2-(1-hydroxyethyl)-1H-imidazol-1-yl)methyl)isoxazol-5-yl)phenyl)ethynyl)-3,6-dihydropyridin-1(2H)-yl)(pyridin-4-yl)methanone] | 19.7 | 1 (≈ 2.09 µM) | 2 (≈ 4.17 µM) | 
C[C@H](O)c1nccn1Cc1cc(-c2ccc(C#CC3CC4(C3)CN(C(=O)CO)C4)cc2)on1 [Example 26, (S)-2-hydroxy-1-(6-((4-(3-((2-(1-hydroxyethyl)-1H-imidazol-1-yl)methyl)isoxazol-5-yl)phenyl)ethynyl)-2-azaspiro[3.3]heptan-2-yl)ethan-1-one] | 11.3 | 2 (≈ 4.48 µM) | 2 (≈ 4.48 µM) | 
C[C@H](O)c1nccn1Cc1cc(-c2ccc(C#CC3CC4(CCN(C(N)=O)CC4)C3)cc2)on1 [Example 19, (S)-2-((4-(3-((2-(1-hydroxyethyl)-1H-imidazol-1-yl)methyl)isoxazol-5-yl)phenyl)ethynyl)-7-azaspiro[3.5]nonane-7-carboxamide] | 6.05 | 2 (≈ 4.35 µM) | 4 (≈ 8.7 µM) | 
C[C@H](O)c1nccn1Cc1cc(-c2ccc(C#CC3CC4(CCN(C(=O)CC#N)CC4)C3)cc2)on1 [Example 29, (S)-3-(2-((4-(3-((2-(1-hydroxyethyl)-1H-imidazol-1-yl)methyl)isoxazol-5-yl)phenyl)ethynyl)-7-azaspiro[3.5]nonan-7-yl)-3-oxopropanenitrile] | 6.17 | 2 (≈ 4.14 µM) | 4 (≈ 8.27 µM) | 
C[C@H](O)c1nccn1Cc1cc(-c2ccc(C#CC3CC4(C3)CN(C(=O)n3ccnc3)C4)cc2)on1 [Example 48, (S)-(6-((4-(3-((2-(1-hydroxyethyl)-1H-imidazol-1-yl)methyl)isoxazol-5-yl)phenyl)ethynyl)-2-azaspiro[3.3]heptan-2-yl)(1H-imidazol-1-yl)methanone] | 27.9 | 2 (≈ 4.14 µM) | 2 (≈ 4.14 µM) | 
C[C@H](O)c1nccn1Cc1cc(-c2ccc(C#CC3=CCN(Cc4ccc(C(=O)O)cc4)CC3)cc2)on1 [Example 34, (S)-4-((4-((4-(3-((2-(1-hydroxyethyl)-1H-imidazol-1-yl)methyl)isoxazol-5-yl)phenyl)ethynyl)-3,6-dihydropyridin-1(2H)-yl)methyl)benzoic acid] | 26.7 | 2 (≈ 3.93 µM) | 4 (≈ 7.87 µM) | 
C[C@H](O)c1nccn1Cc1cc(-c2ccc(C#CC3CC4(CCN(Cc5ccn[nH]5)CC4)C3)cc2)on1 [Example 25, (S)-1-(1-((5-(4-((7-((1H-pyrazol-5-yl)methyl)-7-azaspiro[3.5]nonan-2-yl)ethynyl)phenyl)isoxazol-3-yl)methyl)-1H-imidazol-2-yl)ethan-1-ol] | 7.28 | 2 (≈ 4.03 µM) | 4 (≈ 8.05 µM) | 
C[C@H](O)c1nccn1Cc1cc(-c2ccc(C#CC3CC4(C3)CN(C(N)=O)C4)cc2)on1 [Example 21, (S)-6-((4-(3-((2-(1-hydroxyethyl)-1H-imidazol-1-yl)methyl)isoxazol-5-yl)phenyl)ethynyl)-2-azaspiro[3.3]heptane-2-carboxamide] | 5.11 | 2 (≈ 4.64 µM) | 4 (≈ 9.27 µM) | 
C[C@H](O)c1nccn1Cc1cc(-c2ccc(C#CC3=CCN(C(N)=O)CC3)cc2)on1 [Example 58, (S)-4-((4-(3-((2-(1-hydroxyethyl)-1H-imidazol-1-yl)methyl)isoxazol-5-yl)phenyl)ethynyl)-3,6-dihydropyridine-1(2H)-carboxamide] | 19.2 | 1 (≈ 2.4 µM) |  | 1 (≈ 2.4 µM)
C[C@H](O)c1nccn1Cc1cc(-c2ccc(C#CC3=CCN(C(=O)c4ccnnc4)CC3)cc2)on1 [Example 39, (S)-(4-((4-(3-((2-(1-hydroxyethyl)-1H-imidazol-1-yl)methyl)isoxazol-5-yl)phenyl)ethynyl)-3,6-dihydropyridin-1(2H)-yl)(pyridazin-4-yl)methanone] | 21.7 | 2 (≈ 4.16 µM) |  | 1 (≈ 2.08 µM)
C[C@H](O)c1nccn1Cc1cc(-c2ccc(C#CC3=CCN(CCC#N)CC3)cc2)on1 [Example 44, (S)-3-(4-((4-(3-((2-(1-hydroxyethyl)-1H-imidazol-1-yl)methyl)isoxazol-5-yl)phenyl)ethynyl)-3,6-dihydropyridin-1(2H)-yl)propanenitrile] | 24.9 | 1 (≈ 2.34 µM) |  | 0.5 (≈ 1.17 µM)
C[C@H](O)c1nccn1Cc1cc(-c2ccc(C#CC3=CCN(C(=O)c4cncnc4)CC3)cc2)on1 [Example 40, (S)-(4-((4-(3-((2-(1-hydroxyethyl)-1H-imidazol-1-yl)methyl)isoxazol-5-yl)phenyl)ethynyl)-3,6-dihydropyridin-1(2H)-yl)(pyrimidin-5-yl)methanone] | 21.4 | 2 (≈ 4.16 µM) |  | 0.5 (≈ 1.04 µM)
C[C@H](O)c1nccn1Cc1cc(-c2ccc(C#CC3=CCN(C(=O)C4CCOC4)CC3)cc2)on1 (stereo partly drawn) [Example 41, (4-((4-(3-((2-((S)-1-hydroxyethyl)-1H-imidazol-1-yl)methyl)isoxazol-5-yl)phenyl)ethynyl)-3,6-dihydropyridin-1(2H)-yl)(tetrahydrofuran-3-yl)methanone] | 22.3 | 1 (≈ 2.12 µM) |  | 0.25 (≈ 0.529 µM)
